In data set [1] the test system is Tat activity (Tat-induced viral transcription). Description: microbe, parasite or virus in culture. The class given is cell-based, HIV-1. The procedure: (§1) (A) (Upper panel) Doxycycline (Dox)-inducible Tat-expressing bl-DTR cells cultured in 96-well plates treated with two-fold serial dilutions of each compound in the presence of Dox (50 ng/mL). At 24 h after treatment, the activity of firefly luciferase (F-Luc), indicating Tat activity, was determined as described in the Materials and Methods section. (Bottom panel) TZM-bl cells were treated with two-fold serial dilutions of the indicated compound and then infected with the HIV-1NL4-3 strain at a multiplicity of infection (MOI) of 1. At 24 h after infection, the viral infectivity and cell viability were determined as described in the Materials and Methods section. […] (B) 2 × 10^5 TZM-bl cells growing in 6-well plates were infected with HIV-1 (MOI = 1), transfected with a Tat-expressing plasmid (2 μg) or treated with PMA ([…]) upon indicated compounds at indicated concentrations, respectively. At 24 h after treatment, LTR promoter activity was determined via a Bright-Glo Luciferase Assay Kit. The relative activities are represented as the mean ± SD (n = 3) compared with the DMSO vesicle. (C) The biotinylated TAR RNA (2 nM) was incubated with ARM peptide (100 nM) in the presence of increasing amounts of the hit compound and separated on a 3–12% native polyacrylamide gel. The mobility of biotinylated TAR RNA was detected by chemiluminescence.
The inhibitory effect of hit compounds on Tat-mediated transcription was determined using doxycycline (Dox)-inducible Tat-expressing TZM-bl cells that express the LTR-driven firefly luciferase (F-Luc) gene under the control of Tat upon Dox treatment, as described previously but with minor modifications. In brief, 1 × 10^4 of the cells were cultured in 96-well plates, treated with compounds at a concentration of 10 µM (in the second round of screening), and then treated with Dox (final concentration: 50 ng/mL). After 24 h, the inhibitory effect of the hit compounds on Tat activity was determined by measuring F-Luc activity using a Bright-Glo Luciferase Assay Kit (Promega, Madison, WI, USA). For the dose–response assay, cells cultured in 100 μL medium were treated with 50 μL of 1:2 serially diluted compounds at concentrations ranging from 0 to 12.5 µM and then treated with 50 μL of Dox (final concentration: 50 ng/mL). At 24 h post-treatment, the F-Luc activity was determined as described above. All luminescence assays were carried out in a SpectraMax Paradigm Microplate Reader (Molecular Devices, San Jose, CA, USA), and the data were expressed as a relative percentage (%) compared to the DMSO control (vehicle) in the presence of Dox. The experiments were performed in triplicate.

The subject of data set [2] is HIV-1NL4-3. Description: HIV-1 infectivity in TZM-bl cells (LTR-driven F-Luc). Conditions: Human immunodeficiency virus 1, TZM-bl, 24 h, read-out: IC50 of Infectivity. Type of data set: cell-based. The procedure: as §1
(§2) To determine the inhibitory effect of hit compounds on HIV-1 infection, we used TZM-bl cells (also referred to as JC53BL-13), which express HIV-1 receptors and contain the LTR-driven F-Luc gene controlled by HIV-1 infection, as described previously but with some minor modifications. Briefly, 1 × 10^4 TZM-bl cells cultured on 96-well plates were treated in triplicate wells with 1:2 serially diluted compounds at concentrations ranging from 0 to 12.5 µM. Subsequently, the cells were infected with HIV-1NL4-3 virus obtained from the transfection of 293T cells at a multiplicity of infection (MOI) of 1. At 24 h after infection, the inhibitory effect of the hit compounds on infectivity was determined using the Bright-Glo Luciferase Assay Kit (Promega). The dose–response data are expressed as a relative percentage compared to the DMSO control (vehicle). The inhibitory effects of the hit compounds on HIV-1 replication were determined as previously described. Briefly, 4 × 10^5 PBMCs pre-activated with phytohemagglutinin M (PHA-M) were washed with fresh media and then infected with HIV-1NL4-3 or HIV-1AD8 at an MOI of 0.1 by spinoculation for 2 h. After infection, the cells were treated with hit compounds at the indicated concentrations at 3–5 days after treatment, and the inhibitory effect of hit compounds on viral replication was determined by the titration of virions from the cell supernatant using a p24 […]™ Assay Kit (PerkinElmer) according to the manufacturer’s instructions. Cell viability was determined using resazurin-based PrestoBlue™ cell viability reagent (Thermo Fisher Scientific, Waltham, MA, USA) according to the manufacturer’s instructions. The data are presented as relative percentages compared to the DMSO control (vehicle). The experiments were performed in triplicate.

Data set [3] can be described thus: in vitro. As to conditions: human. The procedure: as §1
as §2, with “Subsequently, the cells were infected with HIV-1NL4-3 virus obtained from the transfection of 293T cells at a multiplicity of infection (MOI) of 1.” left out, “Briefly, 4 × 10^5 PBMCs pre-activated with phytohemagglutinin M (PHA-M) were washed with fresh media and then infected with HIV-1NL4-3 or HIV-1AD8 at an MOI of 0.1 by spinoculation for 2 h.” left out, “The data are presented as relative percentages compared to the DMSO control (vehicle). The experiments were performed in triplicate.” left out

The subject of data set [4] is TZM-bl cells. Description: in vitro. Conditions: human, 24 h. The procedure:
as §1
as §2, with “Subsequently, the cells were infected with HIV-1NL4-3 virus obtained from the transfection of 293T cells at a multiplicity of infection (MOI) of 1.” left out, “Briefly, 4 × 10^5 PBMCs pre-activated with phytohemagglutinin M (PHA-M) were washed with fresh media and then infected with HIV-1NL4-3 or HIV-1AD8 at an MOI of 0.1 by spinoculation for 2 h.” left out, “The data are presented as relative percentages compared to the DMSO control (vehicle). The experiments were performed in triplicate.” left out

Data set [5] has as its target TAR RNA. Description: RNA gel mobility shift assay (biotinylated TAR RNA and ARM peptide). Type of data set: binding, HIV-1. As to conditions: 2 nM biotinylated TAR RNA, 100 nM ARM peptide. The procedure:
To determine the inhibitory effect of hit compounds on the Tat (ARM)-TAR RNA interaction, a gel shift assay was carried out using the LightShift Chemiluminescent RNA EMSA Kit (Thermo Scientific) according to the manufacturer’s instructions, but with minor modifications suitable for our experiment. Briefly, 2 nM of 5′-biotinylated TAR RNA (nt 31) and 100 nM of ARM peptide were incubated with increasing amounts of hit compounds in the 1× REMSA binding buffer (10 mM HEPES pH 7.5, 10 mM MgCl2, 5 mM KCl, 1 mM DTT, and v/v 5 % glycerol) supplemented with 8 units/reaction of RNase OUT (Invitrogen) (final: 20 µL) at 20 °C for 20 min. Subsequently, the reaction was separated on a 3–12% native gradient PAGE gel. The RNA was then transferred to a nylon membrane to detect the mobility-shifted biotinylated TAR RNA using StAV-horseradish peroxidase conjugate. Chemiluminescence was detected using a GBox Chemi chemi-luminometer (Syngene, Fredrick, MD, USA).

For data set [6], the system named is HIV-1NL4-3 (X4-tropic). Description: HIV-1 replication assay in PBMCs (p24), HIV-1NL4-3. Type of data set: cell-based. As to conditions: PHA-preactivated PBMCs, MOI 0.1, 72 h; 460-G06 at 12.5-100 nM. The procedure: (§3) Figure 6 Phytohemagglutinin-preactivated peripheral blood mononuclear cells were infected with HIV-1NL4-3 (A) or HIV-1AD8 (B) at an MOI of 0.1 for 2 h and then treated with compounds at indicated concentrations for 72 h. […] The data are expressed as the mean ± SD (n = 3). * p < 0.05 indicates a comparison with the cells treated with DMSO (vehicle). ARVs, anti-retroviral drugs; EFV, efavirenz; DOL, dolutegravir; AZT, azidothymidine.
(§4) The experiments were performed in triplicate.

The subject of data set [7] is HIV-1AD8 (R5-tropic). Description: HIV-1 replication assay in PBMCs (p24), HIV-1AD8. The class given is cell-based. As to conditions: PHA-preactivated PBMCs, MOI 0.1, 72 h; 460-G06 at 12.5-100 nM. The procedure:
as §3, §4

For data set [8], the system named is peripheral blood mononuclear cells. Description: Cell viability in PBMCs (PrestoBlue). Conditions: primary PBMCs, 72 h. The class given is cell-based. The procedure: as §3, §4

Entries after “also recorded” stand apart in the source; their conditions may differ.

Consider `CN1C/C=C/CCOc2cccc(c2)-c2ccnc(n2)Nc2cccc(c2)C1` [Hit 460-G06, (E)-6-methyl-12-oxa-3,6-diaza-2(4,2)-pyrimidine-1,4(1,3)-dibenzenacyclododecaphan-8-ene], for which, in data set [1] (0-12.5 μM, bl-DTR cells), the “dose response of Tat activity (F-Luc), in words” value is recorded as “gradual inhibition of F-Luc activity”. In addition, the IC50 (commonly the concentration that gives 50% inhibition) was 0.011 ± 0.001 µM in data set [1] (Human immunodeficiency virus 1, 24 h, read-out: IC50 of Tat Activity) and 0.013 ± 0.003 µM in data set [2]. For the same compound, in data set [3], the CC50 at 24 h stood at 4.94 ± 0.44 µM. In addition, the “concentration at which cytotoxicity is indicated” value in data set [4] is reported as “over 0.1 μM”. Further, the Kd (in general, the free concentration of one partner at which half of the binding sites on the other are occupied at equilibrium, for simple one-to-one binding) in data set [5] came to 132 µM. In addition, the “dissociation of ARM from TAR RNA, in words” value in data set [5] was “directly bound to the TAR RNA and efficiently dissociated the ARM from TAR RNA”. For the same compound, the “inhibition of viral replication, in words” value in data set [6] and in data set [7] was “inhibited viral replication in a dose-dependent manner” in each case. In data set [8], the “cell viability / cytotoxicity in PBMCs, in words” value was “without a severe decrease in cell viability; also recorded: such cytotoxicity was not observed”.
